According to patent US20250235543A1, “MODIFIED PROTEINS AND PROTEIN DEGRADERS” (Cullgen (Shanghai), Inc., priority 2021, published 2025):

What was measured:
Type in all cases: cell-based
Calu-1 = assay: Cell viability assay, Calu-1; conditions: Homo sapiens, 72 h; Calu-1, NSCLC, 3 days; read-out: Cellular Anti-proliferation activity (IC50)
Procedure: (§1) Cells were treated with CDK4/6 inhibitors palbociclib, ribociclib, or abemaciclib, or heterobifunctional compounds CPD-002 or CPD-031 following a 9-point serial dilution for 3 days.
(§2) Cells were seeded at a density of 2,000-5,000 cells per well in 96-well assay plates and treated with test compounds following a 10-point serial dilution for 3-6 days. Cell viability was determined using the CellTiter-Lumi assay kit according to the manufacturer's instructions. The dose-response curves were determined and IC50 values were calculated using the GraphPad Prism software following a nonlinear regression (least squares fit) method. Data presented was mean±standard deviation (SD) unless otherwise indicated.

NCI-H522 = assay: Cell viability assay, NCI-H522; conditions: Homo sapiens, 72 h; NCI-H522, NSCLC, 3 days; read-out: Cellular Anti-proliferation activity (IC50)
Procedure: as §1, §2

MDA-MB-157 = assay: Cell viability assay, MDA-MB-157; conditions: Homo sapiens, 72 h; MDA-MB-157, TNBC, 3 days; read-out: Cellular Anti-proliferation activity (IC50)
Procedure: as §1, §2

MDA-MB-453 = assay: Cell viability assay, MDA-MB-453; conditions: Homo sapiens, 72 h; MDA-MB-453, TNBC, 3 days; read-out: Cellular Anti-proliferation activity (IC50)
Procedure: as §1, §2

MDA-MB-468 = assay: Cell viability assay, MDA-MB-468; conditions: Homo sapiens, 72 h; MDA-MB-468, TNBC, 3 days; read-out: Cellular Anti-proliferation activity (IC50)
Procedure: as §1, §2

Hs578T = assay: Cell viability assay, Hs578T; conditions: Homo sapiens, Hs-578T, 72 h, TNBC, 3 days, read-out: Cellular Anti-proliferation activity (IC50)
Procedure: as §1, §2

BT-549 = assay: Cell viability assay, BT-549; conditions: Homo sapiens, 72 h; BT-549, TNBC, 3 days; read-out: Cellular Anti-proliferation activity (IC50)
Procedure: as §1, §2

KURAMOCHI = assay: Cell viability assay, KURAMOCHI; conditions: 72 h, OC, 3 days, read-out: Cellular Anti-proliferation activity (IC50)
Procedure: as §1, §2

OVCAR3 = assay: Cell viability assay, OVCAR3; conditions: Homo sapiens, OVCAR-3, 72 h; OVCAR3, OC, 3 days; read-out: Cellular Anti-proliferation activity (IC50)
Procedure: as §1, §2

MIA PaCa-2 = assay: Cell viability assay, MIA PaCa-2; conditions: Homo sapiens, 72 h; MIA PaCa-2, PC, 3 days; read-out: Cellular Anti-proliferation activity (IC50)
Procedure: as §1, §2

Cal-62 = assay: Cell viability assay, Cal-62; conditions: Homo sapiens, 72 h; Cal-62, TC, 3 days; read-out: Cellular Anti-proliferation activity (IC50)
Procedure: as §1, §2

T47D cells = assay: Flow cytometric analysis of Annexin V/7-AAD stained T47D cells; conditions: 6 days
Procedure: ER^+ breast cancer T47D cells were treated with DMSO, palbociclib, heterobifunctional compound CPD-343, or negative control compound CPD-380 for 6 days at doses approximating IC50 and IC90 concentrations determined in FIGS. 10A and 13. Cells were harvested by trypsinization, staining was carried out using the Annexin V Apoptosis Detection Kit. The percentages of early apoptotic (Annexin V^+7-AAD^−, lower right quadrant), late apoptotic (Annexin V^+7-AAD^+, upper right quadrant) and necrotic cells (Annexin V-7-AAD^+, upper left quadrant) are indicated on dot plots. […] Furthermore, we developed one ER^+ breast cancer T47D model with acquired resistance after long period of treatment with 1 μM palbociclib (over IC90). Cells were deemed resistant when growing in the presence of palbo at the same rate as parental cells. Palbo resistance was determined by CellTiter-Lumi cell viability assay.

IC50 (Calu-1) [µM] | IC50 (NCI-H522) [µM] | IC50 (MDA-MB-157) [µM] | IC50 (MDA-MB-453) [µM] | IC50 (MDA-MB-468) [µM] | IC50 (BT-549) [µM] | IC50 (OVCAR3) [µM] | IC50 (MIA PaCa-2) [µM] | Compound | IC50 (Hs578T) [µM] | IC50 (KURAMOCHI) [µM] | IC50 (Cal-62) [µM] | Annexin V+ population (T47D cells; 100 nM) [%] | Annexin V+ population (T47D cells; 1 μM) [%]
29 | > 3 | > 10 | 0.03 | 3.09 | 2.07 | > 10 | 0.55 | CCN1CCN(Cc2ccc(Nc3ncc(F)c(-c4cc(F)c5nc(C)n(C(C)C)c5c4)n3)nc2)CC1 [abemaciclib] | 1.2 | 2.5 | 2.12 | – | –
> 10 | > 10 | > 10 | 2.7 | > 10 | > 10 | > 10 | > 3 | CC(=O)c1c(C)c2cnc(Nc3ccc(N4CCNCC4)cn3)nc2n(C2CCCC2)c1=O [Palbociclib, palbociclib] | > 10 | > 10 | > 10 | 15.9 | 26.1
> 10 | > 10 | > 10 | > 3 | > 10 | > 10 | > 10 | > 3 | CN(C)C(=O)c1cc2cnc(Nc3ccc(N4CCNCC4)cn3)nc2n1C1CCCC1 [ribociclib] | > 10 | > 10 | > 10 | – | –
